Data: patent US10239843B2 (CANCER RESEARCH TECHNOLOGY LIMITED, priority 2014, dated 2019)
Like-named read-outs stand apart in the source and are kept apart here.

Legend:
[1] = system: PARG in HeLa cell line; assay: PARG cell assay (PAR chain immunofluorescence after MMS); assay type: cell-based; settings: HeLa cells
Summary of the method: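 HeLa cells were dosed with compound for 1 h, then given MMS at 50 μg/mL final for a further hour. Cells were methanol-fixed, permeabilised and stained overnight at 4° C with anti-PAR monoclonal antibody. Retained nuclear PAR chains, detected by indirect immunofluorescence, indicate PARG inhibition.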

[2] = target: Human Full Length PARG (Homo sapiens (Human), UniProt Q86W56); assay: PARG enzyme assay (TR-FRET); assay type: biochemical
[3] = Homo sapiens, MMS treatment, read-out: PARG Cell IC50
[4] = MMS treatment, read-out: PARG Cell IC50
[5] = Homo sapiens, MMS 50 μg/mL, read-out: PARG Cell IC50 Geomean
[6] = read-out: PARG Biochem IC50 Geomean
[7] = MMS 50 μg/mL, read-out: PARG Cell IC50 Geomean

Sequence of Human Full Length PARG (Q86W56 whole entry): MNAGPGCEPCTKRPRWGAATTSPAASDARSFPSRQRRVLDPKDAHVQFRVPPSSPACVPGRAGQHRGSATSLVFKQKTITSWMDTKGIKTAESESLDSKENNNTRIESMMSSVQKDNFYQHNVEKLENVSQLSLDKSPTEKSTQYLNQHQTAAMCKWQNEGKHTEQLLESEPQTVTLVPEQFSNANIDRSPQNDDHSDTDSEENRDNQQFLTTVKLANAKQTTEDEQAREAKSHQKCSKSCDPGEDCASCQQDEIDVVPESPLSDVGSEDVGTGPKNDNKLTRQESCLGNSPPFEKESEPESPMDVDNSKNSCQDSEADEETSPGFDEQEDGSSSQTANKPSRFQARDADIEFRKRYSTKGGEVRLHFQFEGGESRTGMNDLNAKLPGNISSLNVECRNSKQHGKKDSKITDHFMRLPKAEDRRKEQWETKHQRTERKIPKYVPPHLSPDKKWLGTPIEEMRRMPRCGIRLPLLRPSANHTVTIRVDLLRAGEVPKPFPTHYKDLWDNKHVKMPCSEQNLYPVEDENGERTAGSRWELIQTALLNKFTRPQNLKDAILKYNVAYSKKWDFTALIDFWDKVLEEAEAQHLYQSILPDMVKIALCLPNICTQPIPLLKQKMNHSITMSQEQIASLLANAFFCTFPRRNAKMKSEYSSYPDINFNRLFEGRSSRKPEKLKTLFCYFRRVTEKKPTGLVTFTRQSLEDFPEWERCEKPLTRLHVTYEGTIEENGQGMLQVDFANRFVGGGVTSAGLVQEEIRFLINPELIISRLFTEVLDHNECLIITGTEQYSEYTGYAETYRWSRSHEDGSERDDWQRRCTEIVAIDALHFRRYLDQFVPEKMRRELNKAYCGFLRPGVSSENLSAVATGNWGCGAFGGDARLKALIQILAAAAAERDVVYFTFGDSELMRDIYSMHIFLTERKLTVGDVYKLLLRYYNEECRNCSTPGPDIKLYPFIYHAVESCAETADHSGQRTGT

Structure (SMILES) | IC50 [1, 3] | IC50 ([2]; read-out: PARG Biochem IC50) | IC50 [1, 5] | IC50 [2, 6] | further results
C#CC1(NS(=O)(=O)c2ccc3c(c2)c(=O)n(Cc2cnn(C)c2)c(=O)n3C)CC1 [Example 427, N-(1-Ethynylcyclopropyl)-1-methyl-3-[(1-methylpyrazol-4-yl)methyl]-2,4-dioxo-quinazoline-6-sulfonamide] | 1260 nM | 5400 nM | – | – | –
Cc1nc(Cn2c(=O)n(Cc3cnn(C)c3)c(=O)c3cc(S(=O)(=O)NC4(CF)CC4)ccc32)cs1 [Example 582, N-[1-(Fluoromethyl)cyclopropyl]-3-[(1-methylpyrazol-4-yl)methyl]-1-[(2-methylthiazol-4-yl)methyl]-2,4-dioxo-quinazoline-6-sulfonamide] | 73 nM | 160 nM | – | – | –
Cc1cc(Cn2c(=O)c3cc(S(=O)(=O)NC4(CF)CC4)ccc3n(Cc3csc(C)n3)c2=O)on1 [Example 550, N-[1-(Fluoromethyl)cyclopropyl]-3-[(3-methylisoxazol-5-yl)methyl]-1-[(2-methylthiazol-4-yl)methyl]-2,4-dioxo-quinazoline-6-sulfonamide] | – | 191 nM | – | – | IC50 [1, 4]: 134 nM
Cn1cc(Cn2c(=O)c3cc(S(=O)(=O)NC4(CF)CC4)ccc3n(Cc3cncn3C)c2=O)cn1 [Example 588, N-[1-(Fluoromethyl)cyclopropyl]-1-[(3-methylimidazol-4-yl)methyl]-3-[(1-methylpyrazol-4-yl)methyl]-2,4-dioxo-quinazoline-6-sulfonamide] | 1500 nM | 19 nM | – | – | –
CC1(NS(=O)(=O)c2ccc3c(c2)c(=O)n(CC#N)c(=O)n3CC2CC2)CC1 [Example 193] | – | – | 556 nM | 277 nM | –
COc1cccc(Cn2c(=O)n(Cc3cnn(C)c3)c(=O)c3cc(S(=O)(=O)NC4(C)CC4)ccc32)c1 [Example 172] | – | – | – | 100 nM | IC50 [1, 7]: 193 nM
Cc1cc(Cn2c(=O)n(Cc3nnc(C)s3)c(=O)c3cc(S(=O)(=O)NC4(C)CC4)ccc32)n(C)n1 [Example 615, 1-[(2,5-Dimethylpyrazol-3-yl)methyl]-N-(1-methylcyclopropyl)-3-[(5-methyl-1,3,4-thiadiazol-2-yl)methyl]-2,4-dioxo-quinazoline-6-sulfonamide] | 274 nM | 64 nM | – | – | –
Cn1cc(Cn2c(=O)[nH]c3ccc(S(=O)(=O)NC4(CF)CC4)cc3c2=O)cn1 [Example 416, N-[1-(Fluoromethyl)cyclopropyl]-3-[(1-methylpyrazol-4-yl)methyl]-2,4-dioxo-1H-quinazoline-6-sulfonamide] | – | 430 nM | – | – | IC50 [1, 4]: 1320 nM
COc1ccc(Cn2c(=O)n(C)c(=O)c3cc(S(=O)(=O)NC4(C)CC4)ccc32)cc1 [Example 61] | – | – | 199 nM | 454 nM | –
Cn1c(=O)n(CC(=O)N2CCCC2)c(=O)c2cc(S(=O)(=O)NC3(C)CC3)ccc21 [Example 475, 1-Methyl-N-(1-methylcyclopropyl)-2,4-dioxo-3-(2-oxo-2-pyrrolidin-1-yl-ethyl)quinazoline-6-sulfonamide] | 1170 nM | 6120 nM | – | – | –
Cn1cc(Cn2c(=O)c3cc(S(=O)(=O)NC4(CF)CC4)ccc3n(CC3CCCC3)c2=O)cn1 [Example 608, 1-(Cyclopentylmethyl)-N-[1-(fluoromethyl)cyclopropyl]-3-[(1-methylpyrazol-4-yl)methyl]-2,4-dioxo-quinazoline-6-sulfonamide] | 50 nM | 64 nM | – | – | –
Cc1ncc(Cn2c(=O)c3cc(S(=O)(=O)NC4(C#N)CC4)ccc3n(CC3CC3)c2=O)s1 [Example 399, N-(1-Cyanocyclopropyl)-1-(cyclopropylmethyl)-3-[(2-methylthiazol-5-yl)methyl]-2,4-dioxo-quinazoline-6-sulfonamide] | 87 nM | 31 nM | – | – | –
Cc1ncc(Cn2c(=O)c3cc(S(=O)(=O)NC4(C#N)CC4)ccc3n(Cc3ccc(F)cc3)c2=O)s1 [Example 402, N-(1-Cyanocyclopropyl)-1-[(4-fluorophenyl)methyl]-3-[(2-methylthiazol-5-yl)methyl]-2,4-dioxo-quinazoline-6-sulfonamide] | 167 nM | 66 nM | – | – | –
Cc1noc(C)c1Cn1c(=O)c2cc(S(=O)(=O)NC3(C)CC3)ccc2n(Cc2ccc(F)cc2)c1=O [Example 168] | – | – | 146 nM | 160 nM | –
Cn1cc(Cn2c(=O)c3cc(S(=O)(=O)NC4(CF)CC4)ccc3n(Cc3ccno3)c2=O)cn1 [Example 585, N-[1-(Fluoromethyl)cyclopropyl]-1-(isoxazol-5-ylmethyl)-3-[(1-methylpyrazol-4-yl)methyl]-2,4-dioxo-quinazoline-6-sulfonamide] | 52 nM | 38 nM | – | – | –
COCCCn1c(=O)n(Cc2cc(C)no2)c(=O)c2cc(S(=O)(=O)NC3(C)CC3)ccc21 [Example 251] | – | – | – | 392 nM | IC50 [1, 7]: 178 nM
Cc1ncc(Cn2c(=O)c3cc(S(=O)(=O)NC4(CF)CC4)ccc3n(C)c2=O)s1 [Example 533, N-[1-(Fluoromethyl)cyclopropyl]-1-methyl-3-[(2-methylthiazol-5-yl)methyl]-2,4-dioxo-quinazoline-6-sulfonamide] | 282 nM | 287 nM | – | – | –
Cn1cc(Cn2c(=O)[nH]c3cc(F)c(S(=O)(=O)NC4(C#N)CC4)cc3c2=O)cn1 [Example 387, N-(1-Cyanocyclopropyl)-7-fluoro-3-[(1-methylpyrazol-4-yl)methyl]-2,4-dioxo-1H-quinazoline-6-sulfonamide] | – | – | 1520 nM | 452 nM | –

Structure (SMILES) | IC50 [1, 3] | IC50 ([2]; read-out: PARG Biochem IC50) | IC50 [1, 5] | IC50 [2, 6] | further results
Cc1cc(Cn2c(=O)c3cc(S(=O)(=O)NC4(C)CC4)ccc3n(CC(F)(F)F)c2=O)on1 [Example 325] | – | – | 320 nM | 431 nM | –
Cn1cc(Cn2c(=O)c3cc(S(=O)(=O)NC4(CF)CC4)ccc3n(Cc3ncccc3F)c2=O)cn1 [Example 542, N-[1-(Fluoromethyl)cyclopropyl]-1-[(3-fluoro-2-pyridyl)methyl]-3-[(1-methylpyrazol-4-yl)methyl]-2,4-dioxo-quinazoline-6-sulfonamide] | 330 nM | 349 nM | – | – | –
CSCCn1c(=O)n(Cc2cnn(C)c2)c(=O)c2cc(S(=O)(=O)NC3(C)CC3)ccc21 [Example 366] | – | – | 30 nM | 160 nM | –
Cn1cc(Cn2c(=O)c3cc(S(=O)(=O)NC4(C)CC4)ccc3n(CC3CCCO3)c2=O)cn1 (stereo not drawn) [Example 258] | – | – | 131 nM | 169 nM | –
Cc1cc(Cn2c(=O)c3cc(S(=O)(=O)NC4(C)CC4)ccc3n(CC3CCCO3)c2=O)on1 (stereo not drawn) [Example 267] | – | – | – | 234 nM | IC50 [1, 7]: 248 nM
Cc1nnc(Cn2c(=O)[nH]c3ccc(S(=O)(=O)NC4(CF)CC4)cc3c2=O)s1 [Example 601, N-[1-(Fluoromethyl)cyclopropyl]-3-[(5-methyl-1,3,4-thiadiazol-2-yl)methyl]-2,4-dioxo-1H-quinazoline-6-sulfonamide] | 13500 nM | 710 nM | – | – | –
Cn1cc(Cn2c(=O)c3cc(S(=O)(=O)NC4(CF)CC4)ccc3n(Cc3cccc(F)n3)c2=O)cn1 [Example 540, N-[1-(Fluoromethyl)cyclopropyl]-1-[(6-fluoro-2-pyridyl)methyl]-3-[(1-methylpyrazol-4-yl)methyl]-2,4-dioxo-quinazoline-6-sulfonamide] | 96 nM | 160 nM | – | – | –
Cn1cc(Cn2c(=O)c3cc(S(=O)(=O)NC4(C#N)CC4)ccc3n(CC#N)c2=O)cn1 [Example 356] | – | – | 16600 nM | 396 nM | –
Cc1cc(Cn2c(=O)n(C)c(=O)c3cc(S(=O)(=O)NC4(C)CC4)c(F)cc32)n(C)n1 [Example 213] | – | – | 787 nM | 473 nM | –
Cc1cc(Cn2c(=O)c3cc(S(=O)(=O)NC4(C)CC4)ccc3n(CC3CCN(C)CC3)c2=O)on1 [Example 371] | – | – | 1110 nM | 258 nM | –
C#CCn1c(=O)n(Cc2cnn(C)c2)c(=O)c2cc(S(=O)(=O)NC3(C#N)CC3)ccc21 [Example 355] | – | – | 953 nM | 122 nM | –
Cn1cc(Cn2c(=O)c3cc(S(=O)(=O)NC4(CF)CC4)ccc3n(CCc3ccccn3)c2=O)cn1 [Example 566, N-[1-(Fluoromethyl)cyclopropyl]-3-[(1-methylpyrazol-4-yl)methyl]-2,4-dioxo-1-[2-(2-pyridyl)ethyl]quinazoline-6-sulfonamide] | – | 687 nM | – | – | IC50 [1, 4]: 562 nM
Cc1cncc(Cn2c(=O)c3cc(S(=O)(=O)NC4(C)CC4)ccc3n(C)c2=O)c1 [Example 418, 1-Methyl-N-(1-methylcyclopropyl)-3-[(5-methyl-3-pyridyl)methyl]-2,4-dioxo-quinazoline-6-sulfonamide] | 2110 nM | 2270 nM | – | – | –
Cn1cc(Cn2c(=O)c3cc(S(=O)(=O)NC4(C(F)F)CC4)ccc3n(Cc3ccc(F)cc3)c2=O)cn1 [Example 460, N-[1-(Difluoromethyl)cyclopropyl]-1-[(4-fluorophenyl)methyl]-3-[(1-methylpyrazol-4-yl)methyl]-2,4-dioxo-quinazoline-6-sulfonamide] | 487 nM | 333 nM | – | – | –
Cn1c(=O)n(Cc2cnsc2)c(=O)c2cc(S(=O)(=O)NC3(CF)CC3)ccc21 [Example 494, N-[1-(Fluoromethyl)cyclopropyl]-3-(isothiazol-4-ylmethyl)-1-methyl-2,4-dioxo-quinazoline-6-sulfonamide] | 1100 nM | 1260 nM | – | – | –
Cc1cc(Cn2c(=O)n(Cc3cnn(C)c3)c(=O)c3cc(S(=O)(=O)NC4(C)CC4)ccc32)on1 [Example 379] | – | – | 77 nM | 35 nM | –
Cn1cc(Cn2c(=O)c3cc(S(=O)(=O)NC4(C)CC4)c(F)cc3n(C)c2=O)cn1 [Example 385, 7-Fluoro-1-methyl-N-(1-methylcyclopropyl)-3-[(1-methylpyrazol-4-yl)methyl]-2,4-dioxo-quinazoline-6-sulfonamide] | – | – | 184 nM | 341 nM | –
Cn1cc(Cc2cc3cc(S(=O)(=O)NC4(C)CC4)ccc3n(C)c2=O)cn1 [Example 491, 1-Methyl-N-(1-methylcyclopropyl)-3-[(1-methylpyrazol-4-yl)methyl]-2-oxo-quinoline-6-sulfonamide] | – | 3440 nM | – | – | IC50 [1, 4]: 1790 nM
